Here are results for four compounds from patent US20250101470A1, “METHOD FOR IMPROVING THE YIELD OF ERINACINE A BY LIQUID FERMENTATION OF HERICIUM ERINACEUS” (Zhejiang University of Technology, priority 2023, published 2025).

This assay relates to Hericium erinaceus strain ACCC50268. Description: Liquid fermentation of Hericium erinaceus with an inducer added; mycelium weighed, Erinacine A in methanol extract measured by HPLC. Format: cell-based. The following applies: for effect on Erinacine A yield (in words): 5 mg/L added on 5th day; for increase of Erinacine A content in the mycelium: 5 mg/L inducer versus no inducer (0.19±0.05 mg/g dry mycelium); for increase of Erinacine A yield: 5 mg/L inducer versus no inducer (4.48±0.96 mg/L). As to the method:
The strain number of a Hericium erinaceus strain is ACCC50268; source: China Agricultural Culture Collection and Management Center.
(S.1) A strain of Hericium erinaceus was subcultured for 3 generations to achieve strain activation. The subculture temperature is 25-28° C., and the optimal culture temperature in this example is 28° C., and the time is 14 days, so that the entire inclined plane can be grown to obtain a slope strain. The components of PDA inclined medium are: potato extract, 15-25 g of glucose, 10-15 g of agar powder, and the volume is set to 1 L with water. In this example, the optimal PDA inclined medium components are as follows: potato extract, 20 g of glucose, 15 g of agar powder, and the volume is determined to 1 L with water;
(S.2) The slope strains obtained in step (S.1) were inoculated into the primary liquid seed medium for culture. One vial of bevel strains was inoculated into two vials of primary liquid seed medium. The components of liquid seed medium are: glucose 25-35 g, soybean meal powder 15-30 g, potassium dihydrogen phosphate 0.5-2 g, magnesium sulfate 0-1 g, and the balance is water. The culture conditions of liquid seed medium are: 1-10 days at 25-28° C. and 130-160 rpm in the dark. In this example, the optimal liquid seed medium components are as follows: glucose 30 g, soybean meal powder 20 g, potassium dihydrogen phosphate 1 g, magnesium sulfate 0.5 g, and the balance is water. The medium was fixed to 1 L with purified water, and the prepared liquid seed medium was loaded into a 500 mL Erlenmeyer flask with a liquid volume of 200 mL, and cultured at 27° C. and 140 rpm for 7 days in the dark, and the liquid seeds of Hericium erinaceus were obtained.
(S.3) the liquid seeds obtained in step (S.2) are inoculated into the liquid fermentation medium for liquid fermentation culture, the ratio of the liquid seed inoculation volume of Hericium erinaceus to the volume of the liquid fermentation medium is 8-12.5% (i.e., the inoculation amount of Hericium erinaceus liquid seeds is 8-12.5%), and the optimal inoculation amount of Hericium erinaceus liquid seeds in this example is 10%. The components of liquid fermentation medium are: glucose 25-50 g, yeast powder 10-30 g, potassium dihydrogen phosphate 0.5-2 g, magnesium sulfate 0-1 g, and the balance is water. The culture conditions of liquid fermentation medium are: 1-10 days at 25-28° C. and 130-160 rpm in the dark. In this example, the optimal liquid fermentation medium components are as follows: 30 g of glucose, 30 g of yeast powder, 1 g of potassium dihydrogen phosphate, 0.5 g of magnesium sulfate, and the balance is water. The medium was fixed to 1 L with distilled water, and the prepared liquid seed medium was packed into a 500 mL Erlenmeyer flask with a liquid volume of 200 mL, and incubated at 27° C. and 140 rpm for 7 days in the dark. […]
seeds of Hericium erinaceus obtained in step (S.2) into liquid fermentation medium for liquid fermentation, […] fermentation medium to a concentration of 5 mg/L. […] After the end of fermentation, the medium was filtered through 80 mesh gauze, washed with water three times, and then dried overnight at 60° C. with hot air to obtain Hericium erinaceus mycelium;
(S.4) The Hericium erinaceus mycelium obtained in step (S.3) was crushed, and 1 g of Hericium erinaceus mycelium dry powder was added to 20 mL of 80% methanol, heated and ultrasonicated. The reaction conditions for ultrasonic extraction of Erinacine A are as follows: ultrasonic power is 200-350 W, heating reaction temperature is 50-70° C., and ultrasonic reaction time is 40-90 min. In this example, the reaction conditions for the optimal ultrasonic extraction of Erinacine A are as follows: ultrasonic extraction at 60° C. and ultrasonic power of 300 W for 60 min. The supernatant was centrifuged to obtain an alcohol extract containing Erinacine A. The alcohol extract was filtered through a 0.22 μm filter membrane and then analyzed in liquid phase. […]

The mark [1] stands for this setting: 5 mg/L, added on 4th day, 6 days induction fermentation.
The mark [2] stands for this setting: 5 mg/L, added on 5th day, 3 days induction fermentation.
The mark [3] stands for this setting: 5 mg/L, added on 5th day, 5 days induction fermentation.
[4] abbreviates: 5 mg/L, added on 5th day, 8 days induction fermentation.
The mark [5] stands for this setting: 5 mg/L, added on 6th day, 6 days induction fermentation.
Where [6] appears, read: 5 mg/L, added on 7th day, 6 days induction fermentation.
[7] abbreviates: 5 mg/L, added on 8th day, 6 days induction fermentation.
[8] abbreviates: 5 mg/L, added on third day, 6 days induction fermentation.
Where [9] appears, read: 10 mg/L, added on 5th day, 6 days induction fermentation.
Setting [10] is: 50 mg/L, added on 5th day, 6 days induction fermentation.
Where [11] appears, read: inducer 5 mg/L in liquid fermentation medium, added on 5th day, 6 days induction fermentation.
Where [12] appears, read: inducer 5 mg/L in liquid fermentation medium, added on 5th day, 6 days induction fermentation, listed as Example 1.
[13] abbreviates: 1 mL of the substance (purity greater than 95%) added on 5th day, 6 days induction fermentation.
[14] abbreviates: 1 mg/L, added on 5th day, 6 days induction fermentation.
[15] abbreviates: 5 mg/L, added on 5th day, 1 day induction fermentation.
[16] abbreviates: 5 mg/L, added on 5th day, 2 days induction fermentation.
[17] abbreviates: 5 mg/L, added on 5th day, 4 days induction fermentation.
Where [18] appears, read: 20 mg/L, added on 5th day, 6 days induction fermentation.
Setting [19] is: inducer 5 mg/L in liquid fermentation medium, added on 5th day, 6 days induction fermentation, listed as Example 2.

Where “and” joins values, the source holds several entries; their conditions need not be identical. Equal values may be shown once.

Take `C[n+]1ccc(-c2cc[n+](C)cc2)cc1` [methyl viologen]: the “increase of Erinacine A content in the mycelium” value is reported as “about 115.47 times” and the “increase of Erinacine A yield” value is “about 92.60 times”. The “effect on Erinacine A yield (in words)” value (6 days induction fermentation) is on record as “significantly increased the yield of Erinacine A”. Moreover, under setting [1], the “Erinacine A content” value was 1.52 ± 0.30 mg/g dried mycelium, the “Erinacine A yield” value was found to be 22.18 ± 3.84 mg/L and the Mycelium yield stood at 2.00 ± 0.84 g/L. In addition, under setting [2], the “Erinacine A content” value worked out at 2.29 ± 0.52 mg/g dried mycelium, the “Erinacine A yield” value is recorded as 40.30 ± 7.52 mg/L and the Mycelium yield was determined as 17.68 ± 0.50 g/L. Under setting [3], the “Erinacine A content” value worked out at 16.58 ± 0.43 mg/g dried mycelium, the “Erinacine A yield” value is reported as 276.77 ± 4.72 mg/L and the Mycelium yield worked out at 5.45 ± 1.39 g/L. For the same compound, under setting [4], the “Erinacine A content” value is given as 8.97 ± 2.33 mg/g dried mycelium, the “Erinacine A yield” value is recorded as 179.50 ± 62.29 mg/L and the Mycelium yield is reported as 19.79 ± 0.76 g/L. Besides, under setting [5], the “Erinacine A content” value is recorded as 2.98 ± 1.16 mg/g dried mycelium, the “Erinacine A yield” value was 69.29 ± 30.01 mg/L and the Mycelium yield was 23.05 ± 1.08 g/L. Further, under setting [6], the “Erinacine A content” value was determined as 2.68 ± 0.66 mg/g dried mycelium, the “Erinacine A yield” value stood at 61.60 ± 10.06 mg/L and the Mycelium yield is recorded as 23.22 ± 1.93 g/L. Under setting [7], the “Erinacine A content” value was determined as 0.57 ± 0.12 mg/g dried mycelium, the “Erinacine A yield” value amounted to 13.29 ± 2.55 mg/L and the Mycelium yield came out at 23.28 ± 0.57 g/L. Also, under setting [8], the “Erinacine A content” value was determined as 0.05 ± 0.01 mg/g dried mycelium, the “Erinacine A yield” value came to 0.41 ± 0.06 mg/L and the Mycelium yield was 8.64 ± 1.54 g/L. Besides, under setting [9], the “Erinacine A content” value is reported as 20.61 ± 3.21 mg/g dried mycelium, the “Erinacine A yield” value is reported as 400.44 ± 69.30 mg/L and the Mycelium yield amounted to 7.40 ± 0.36 g/L. In addition, under setting [10], the “Erinacine A content” value turned out to be 0.21 ± 0.04 mg/g dried mycelium, the “Erinacine A yield” value is 3.71 ± 1.06 mg/L and the Mycelium yield is 17.71 ± 1.29 g/L. Further, under setting [11], the “Erinacine A content” value worked out at 21.94±2.40 mg/g dried mycelium, the “Erinacine A yield” value is 414.84 ± 30.03 mg/L and the Mycelium yield is listed as 18.96 ± 0.69 g/L. Moreover, under setting [12], the “Erinacine A content” value is on record as 94.94 ± 2.40 mg/g dried mycelium; the “Erinacine A yield” value is 414.84 ± 30.03 mg/L and 418.84 ± 30.03 mg/L. The “effect on liquid fermentation growth of Hericium erinaceus (in words)” value (methyl viologen solution added at different times) is “inhibitory effect on the liquid fermentation growth of Hericium erinaceus”.
In the case of `CCCCCCCC/C=C\CCCCCCCC(=O)O` [oleic acid], for the setting “1 mL added on the 5th day of liquid fermentation”, the “effect on synthesis of Erinacine A (in words)” value was “did not show obvious stimulating effects”. Moreover, under setting [13], the “Erinacine A content” value is 0.20 ± 0.10 mg/g dried mycelium, the “Erinacine A yield” value came to 4.70 ± 2.16 mg/L and the Mycelium yield amounted to 23.72 ± 1.04 g/L.
In the case of methyl viologen, the “Erinacine A content” value by setting is: under setting [14], 0.63 ± 0.09 mg/g dried mycelium; under setting [15], 0.07 ± 0.01 mg/g dried mycelium; under setting [16], 0.68 ± 0.27 mg/g dried mycelium; under setting [17], 5.49 ± 1.60 mg/g dried mycelium; under setting [18], 1.50 ± 0.38 mg/g dried mycelium. For the same compound, the “Erinacine A yield” value by setting is: under setting [14], 13.93 ± 4.56 mg/L; under setting [16], 12.53 ± 3.82 mg/L; under setting [17], 103.99 ± 18.67 mg/L; under setting [18], 29.47 ± 7.44 mg/L. The Mycelium yield runs as follows: under setting [14], 9.49 ± 2.94 g/L; under setting [15], 20.16 ± 0.85 g/L; under setting [16], 17.94 ± 1.68 g/L; under setting [18], 19.61 ± 0.48 g/L.
On to `C=C(C)[C@H]1Cc2c(ccc3c2O[C@@H]2COc4cc(OC)c(OC)cc4[C@@H]2C3=O)O1` [rotenone], for which the “increase of Erinacine A content in the mycelium” value is recorded as “about 2.52 times” and the “increase of Erinacine A yield” value was “about 2.06 times”. Moreover, where the note is “6 days induction fermentation”, the “effect on Erinacine A yield (in words)” value is recorded as “positive effect on the increase of Erinacine A yield”. In addition, under setting [11], the “Erinacine A content” value was 0.67 mg/g dried mycelium and 0.67±0.04 mg/g dried mycelium; the “Erinacine A yield” value was 13.72 mg/L and 13.72 ± 0.24 mg/L; the Mycelium yield is given as 8.50 ± 1.69 g/L. Under setting [19], the “Erinacine A content” value is on record as 0.67 ± 0.04 mg/g dried mycelium and the “Erinacine A yield” value amounted to 13.72 ± 0.24 mg/L.
